Literature values in patent US20190125685A1, “COMPOSITE CAPSULE PREPARATION CONTAINING TADALAFIL AND TAMSULOSIN AND HAVING IMPROVED STABILITY AND ELUTION RATE” (HANMI PHARM. CO., LTD., priority 2016, published 2019).

Details: in vivo

Compound: CN1CC(=O)N2[C@H](c3ccc4c(c3)OCO4)c3[nH]c4ccccc4c3C[C@@H]2C1=O [Tadalafil]
- Half-life relative to that of sildenafil or vardenafil: ≥ 3 times
